Data as given in a melting point compilation (Tetko et al.; mined from patent text by program, amines drawn as free bases though some values may be those of a salt).

Structure (SMILES) | melting point [°C]
O=C(O)c1cc2cc(Cl)ccc2nc1NC(Cc1c[nH]c2cc(F)ccc12)C(=O)O (stereo not drawn) | 170 to 174
Cc1ccc(C(N)=O)cc1Br | 178 to 179
Clc1ccccc1-c1cnn2cnnc2n1 | 162 to 165
CCc1c(C)c(NC(=O)CC(C)(C)C)c(C)c2c1SCC2c1ccc(C(C)C)cc1 (stereo not drawn) | 172 to 173
CCN(CC)C(=O)c1c(C(C)C)cc(OC)cc1S(N)(=O)=O | 122 to 125
NS(=O)(=O)c1cc(C(=O)O)cc(OCc2ccsc2)c1-c1ccccc1 | 222 to 223
CCCOc1ccc(OC)cc1C1=NC(=O)C2=NC=NC2=N1 | 233 to 234
CC(C)Cn1nc(C(=O)c2cccc(O)c2)c2ccccc21 | 108 to 110
ON=C1c2ccccc2CCC1Br (stereo not drawn) | 125 to 131
CC1(O)OC(=O)C(c2c(F)cc(F)cc2F)=C1Cc1ccc(Cl)cc1 (stereo not drawn) | 127 to 129
CCCCCC(Sc1ccc(OC)cc1)C(=O)O (stereo not drawn) | 90 to 95
CCCS(=O)c1cccnc1S(=O)(=O)NC(C)(C)C (stereo not drawn) | 138 to 140
C[C@H]1C(=O)C[C@@H]2C[C@H]1OO[C@@]2(C)C=O | 92
COC(=O)COc1nc(Cl)c(Cl)cc1Cl | 99 to 103
Cc1oc(-c2ccccc2Cl)nc1CCOc1ccc(CC2SC(=O)NC2=O)cn1 (stereo not drawn) | 176 to 177
Cc1cc(CC(=O)O)c(CC(C)N)cc1C (stereo not drawn) | 222 to 223
O=C(O)C(O)=CC(=O)c1cc(Cc2ccccc2)cn(Cc2ccccc2)c1=O | 158 to 159
CCOc1ccc(OCC(N)=O)c(C(Nc2ccc(C(=N)N)cc2)C(=O)O)c1 (racemic) | 266
O=C(CCC1CCCC1)Nc1ccc(N2CCC(NC[C@H](O)COc3cccc4[nH]c(=O)[nH]c34)CC2)cc1 | 140 to 144
CCNC(=O)c1cc(Oc2nn(C)c(C(F)(F)F)c2Cl)ccc1[N+](=O)[O-] | 130
O=C1SCC(O)=C1Cc1ccc2ccccc2c1Br | 205 to 206
CCCCCCCCc1ccc(N(c2ccc(CCCCCCCC)cc2)C2(c3ccc(N(CC)CC)cc3)OC(=O)c3nccnc32)cc1 (stereo not drawn) | 180 to 181
CCCCNc1cc(C(=O)O)cc(S(N)(=O)=O)c1Nc1ccccc1 | 230 to 231
CCOC(=O)C(C(=O)O)=C1SCS1 | 166 to 167
Cc1[nH]c2ccccc2c1CC(=O)N1CCN(C(c2ccc(F)cc2)c2ccc(F)cc2)CC1 | 93 to 103
CC(C)c1cc(-c2cc(C(=O)Cl)ccc2S(C)(=O)=O)on1 | 102 to 105
COC(=O)CC[C@H](NC(=O)c1c[nH]c(CCC2CNc3nc(NC(=O)C(C)(C)C)nc(O)c3C2)n1)C(=O)OC (stereo partly drawn) | 129 to 131

Structure (SMILES) | melting point [°C]
COCCc1nc2c(N)nc3ccccc3c2n1CCOCCN(C)S(C)(=O)=O | 145 to 146
CCC(=O)N1C(=O)c2cc(C)ccc2Oc2ncccc21 | 142 to 145
Cc1cc(C)c(Cc2ccc(C(C)C)cc2)c(OCC(=O)O)c1 | 104 to 105
COc1ccc(Cc2cnc(-c3ccccc3)c(-c3ccccc3)n2)cc1 | 102 to 103
N#Cc1ccc(-c2nc(CCl)co2)s1 | 146 to 147
CC1(C)CC(=O)C2C3CCCOC3C2(C)C1 (stereo not drawn) | 111 to 112
BrCCc1cc(Br)c(CCBr)cc1Br | 106 to 108
CC(=O)c1ccc(Cc2ccc(F)cc2)o1 | 27 to 29
CCCn1c(=O)c2[nH]c(-c3nn(CC(=O)Nc4ccc(Cl)cc4)c(C)c3Br)nc2n(CCC)c1=O | 298 to 299
COc1cccc(C2(C(C)(C)O)CCN(C)CC2)c1 | 100
COC(=O)COc1ccc2ccc(C(C)=O)c(O)c2c1 | 133 to 135
NC(=NCC(F)(F)F)Nc1ccnc(SCCCNC(=O)c2ccco2)n1 | 127 to 129
COc1ccc2c(c1)CCC1C2CCC2(C)C(OC(C)=O)=CCC12 (stereo not drawn) | 97 to 100
Fc1ccc2c(C3CCN(CCC4COc5ccccc5O4)CC3)noc2c1 (stereo not drawn) | 112 to 113
CN(C)C(=O)c1cc(O)ccc1C=Cc1ccc(O)cc1 | 184 to 188
CCOP(=O)(O)Cc1ccc(NC(=O)N2CCN(c3ccc(NC(=O)Nc4cc(C)ccc4OC)cc3)CC2)c(C)c1 | 165 to 173
COc1cc(C=C(C(=O)O)c2ccc(O)cc2)cc(OC)c1 | 135 to 137
CC(C)(C)OC(=O)Cn1ccn(C2CCc3ccccc3C2)c1=S (stereo not drawn) | 167 to 169
O=C(Cn1cc(-c2ccccc2)c(-c2ccccc2)n1)NCCN1CCCCC1 | 120 to 124
c1ccc2c3c([nH]c2c1)CCCSCC3 | 106 to 107
CCCCCCCCCCCC1N(C(C)=O)c2ccccc2-c2c([N+](=O)[O-])cnn21 (stereo not drawn) | 83 to 85
Cc1oc(-c2ccccc2)nc1COc1ccc(Cn2cc(C(=O)O)c(-c3ccccc3)n2)cc1 | 165 to 166
N#Cc1ccccc1N=Nc1ccc(O)cc1 | 201 to 203
CNC(=O)Oc1ccc(N=Cc2ccccc2O)c2c1OC(C)(C)C2 | 201 to 203
Cc1cc(C)nc(NC(N)=S)n1 | > 260
CNC(=O)c1cccc(-c2c(C)cc(C)cc2C)c1 | 143
CC(C)Cn1c(=O)n(C)c(=O)c2c(SCCN(C)C)n(Cc3cccc4ccccc34)cc21 | 140 to 144

Other lines, results leading:

melting point [°C] | Structure (SMILES)
82.5 to 83.5 | O=C(c1ccncc1)N1CCN=C1Nc1c(Cl)cccc1Cl
95 | O=C(NCCO)C(Oc1ccc(F)c(C(F)(F)F)c1)c1ccc(Cl)cc1 (stereo not drawn)
155 | C=CCN(C)c1ccc(C(C#N)=C(C#N)C#N)cc1
79 | O=C(O)CCc1cc2cc(Cl)ccc2n1S(=O)(=O)c1ccc2[nH]ccc2c1
247 to 248 | Cc1sc(-c2cc([N+](=O)[O-])cc([N+](=O)[O-])c2)nc1O
281 | O=c1[nH]c(=O)c2cc(C(c3ccccc3)n3cncn3)ccc2[nH]1 (stereo not drawn)
135 | CC(C)Cn1c(=O)n(C)c(=O)c2c(SCCCO)n(Cc3cccc4ccccc34)nc21
81 | CC1(C)CC(O)CC(C)(C)N1N=Nc1ccccc1Br
194 to 195 | COc1ccc2c(c1)CCc1c-2n(-c2ccc(O[Si](C)(C)C(C)(C)C)cc2)c(=O)c2cc(OC)ccc12
196 to 198 | NC(C=C(Cc1ccccc1)CP(=O)(O)O)C(=O)O (stereo not drawn)
148 to 150 | c1ccc(N(CCCNC2=NC3CCC2CC3)c2ccccc2)cc1
282 to 283 | Cc1ccc(-c2ccc3c(c2)C=C(C(=O)Nc2ccc(C4=NCCN4)cc2)CCO3)cc1
213 to 214 | NC(=O)C1=CCCc2cc(Sc3cccc(F)c3)cc(F)c21
142 | OCCC=Cc1ccc(-c2ccccc2)cc1
104 to 106 | COc1cc(S(C)=O)c(C)cc1OCC(C)=O (stereo not drawn)
205 to 207 | COc1ccc(-c2nc3cc(C(N)=O)ccc3[nH]2)c2ccc(C(F)(F)F)nc12
161 to 170 | O=C(O)C1(C(=O)O)CC2CCC2C1 (stereo not drawn)
166 to 181 | CCc1nccc2c(CC(=O)O)cccc12
240 to 255 | Cc1nc2c(/C=C/c3ccccc3)cccn2c1C
121 to 122 | Cc1cc(Oc2c(Cl)cc(C(F)(F)F)cc2Cl)ccc1S(=O)(=O)C(F)(F)F
169 to 170 | Cc1cccc(-c2nc3cccnn3c2-c2ccnc(NC3CCCCC3)c2)c1
238 to 239 | O=C(O)c1cnc2ccoc2c1
149 to 151 | c1ccc(-c2cc(NC3=NCCN3)cc3[nH]cnc23)cc1
212 to 213 | Nc1ncnc2c1ncn2C1OC(CNC=O)C(O)C1O (stereo not drawn)
215 to 227 | c1ccc(-n2c3ccccc3c3cc(-n4ccnc4-c4nccn4-c4ccc5c(c4)c4ccccc4n5-c4ccccn4)ccc32)nc1

melting point [°C] | Structure (SMILES)
162 to 164 | CC1=C(C(=O)OC(C)C)C(c2cccc([N+](=O)[O-])c2)n2c(cc(=O)n2C(=O)OC(C)C)N1 (stereo not drawn)
75 to 77 | CCCCNc1cc(CN(Cc2ccccc2)C(C)=O)cc(S(N)(=O)=O)c1Oc1ccccc1
126 to 129 | CCn1cnc2c(Nc3cccc(Cl)c3)nc(N3CCC[C@@H]3CN)nc21
174 to 176 | C#Cc1c(N)nc(-c2ccc(Cl)c(OC)c2F)nc1C(=O)OC
46 to 47 | COc1ccccc1C(=O)c1ccc(Cl)nc1
285 to 287 | CCCCc1oc2ccccc2c1-c1ncc(-c2ccc3cc(OCc4ccc(C(=O)O)cc4C(=O)O)ccc3c2)o1
152 | CCCCCC(CC(=O)Nc1cc(C(N)=O)ccc1C(C)(C)C)c1ccc(OC)cc1OC (single isomer, unassigned; (+))
213 to 215 | NC(=O)N1C(=O)C(C(=O)c2cccs2)c2ccncc21 (stereo not drawn)
110 to 112 | CSC1NC(=O)N(C(C)C)C(=O)N1N=C(C)C (stereo not drawn)
35 to 36 | COC(=O)C(=NOCc1ccccc1)C(C)=O
300 to 305 | CN1CCC(=C2c3ccccc3C=Cc3ccc(C(=O)O)cc32)CC1
145 to 147 | CC(S)C(O)(Cn1cncn1)c1ccc(F)cc1F (stereo not drawn)
171 to 172 | c1cnc2c(c1)NCc1cccn1C2
202 to 204 | COC(=O)c1c(I)ccc2c(=O)c3ccccc3[nH]c12
141 | CC(CF)(CF)C(=O)NC(CO)c1ccc(C(C)(C)C)cc1 (stereo not drawn)
263 to 268 | CC(=O)c1c(C)[nH]c(C(C)CCC(C)c2[nH]c(C)c(C(C)=O)c2C)c1C (stereo not drawn)
279 to 283 | C[C@H]1Cc2c(F)c(F)cc3c(=O)c(C(=O)O)cn1c23
155 to 162 | Nc1ncc(-c2cccc3ccccc23)o1
151 | Cc1cc(C)nc(SSc2ccc([N+](=O)[O-])cc2C(Cl)(Cl)Cl)n1
142 to 143 | CCOC(=O)c1cn(-c2nccs2)cn1
73 to 73.5 | CCOC(CNC(=C[N+](=O)[O-])SC)OCC
264 to 265 | CCCn1c(=O)c2c(nn3cc(C4CC4)[nH]c23)n(Cc2ccccc2)c1=O
202 | COC(=O)c1ccc2cc(-c3ccc(OCCCO)c(C45CC6CC(CC(C6)C4)C5)c3)ccc2c1
54 to 59 | CC(=O)SCC(CC(C)C)C(=O)NCCN1CCOCC1 (stereo not drawn)
